The numbers were not newly measured in US20060120979A1, “Skin care composition comprising hydroquinone and a substantially anhydrous base” (priority 2004, published 2006), which cites them from elsewhere.

Each structure is given as a SMILES string.

As to `Oc1ccc(O)cc1` [Hydroquinone], the solubility in alcohols result (alcohols) is recorded as “freely soluble”. The solubility in water entry (water) is recorded as “less soluble”.
